Experimental data as given in PubChem BioAssay AID2060910 (Molecular Pharmacology Branch, DTP, NCI, 2025).

System: 242566-281-R-J2-PDC complex spheroid viability
Experiment: Anticancer human tumor 242566-281-R-J2-PDC patient-derived pancreatic carcinoma cell line growth inhibition [RAS]
Conditions: for IC50: curve of first compound; for viability, T/C: stronger effect = lower value
Source text: RAS pathway inhibitors in Combinations in Complex Spheroids
A high-throughput screen of multi-cell type tumor spheroids was designed to identify active combinations of RAS pathway inhibitors and targeted small molecules. Complex spheroids include a stromal component modeled by human endothelial cells (HUVEC) and fibroblasts modeled by human mesenchymal stem cells (MSCs). The concentration ranges selected for each drug and investigational agent were based upon clinically achievable concentrations if the clinical Cmax of the agent was known.
Compounds. The drugs and investigational agents: abemaciclib (NSC768073), cobimetinib (NSC768068), divarasib (GDC6063, NSC841802), docetaxel (NSC628503), GDC-1971 (RLY-1971, NSC841576), gemcitabine (NSC613327), inavolisib (NSC800729), ipatasertib (NSC767898), KB-0742 (NSC834161), MRTX-1133 (NSC836407), osimertinib (NSC779217), RMC-4630 (NSC839698), RMC-6236 (NSC851965), RMC-6291 (NSC852671), Ro-3306 (NSC812927), sapanisertib (NSC764658), SN-38 (NSC673596), staurosporine (NSC755774), SY5609 (NSC837396), and tovorafenib (DAY101, NSC766906), were obtained from the National Cancer Institute (NCI) Developmental Therapeutics Program Chemical Repository. The FDA-approved anticancer drug set is available from the NCI Developmental Therapeutics Program. […] The stock solutions were prepared in dimethyl sulfoxide (DMSO, Sigma-Aldrich, St. Louis, MO, cat. D2650) at 800-fold the tested concentration and stored at -70 degrees C prior to their use. All drugs and investigational agents were tested over a range starting from a high concentration at or near the clinical Cmax and decreasing in half-log increments. If the clinical Cmax for an agent had not been determined, the highest concentration tested was 10 microM.
Cell Culture. All cells were maintained in an incubator at 37 degrees C and 5% CO2 with 95% humidity. The PDC lines were cultured according to standard operating procedures established by the NCI PDMR. All PDCs were thawed and cultured in Matrigel-coated flasks prepared with a working solution of 1X Ham's F-12 nutrient mix, without supplementation (Invitrogen, Waltham, MA, cat. 11765054), 100 U/mL penicillin-streptomycin (Invitrogen, cat. 15140122), and 2.5% Matrigel (Corning Inc., Corning, NY, cat. 354248) for the first three passages. The 362531-283-R-J2-PDC and 782815-120-R-J1-PDC lines were cultured in 6C/Colon 1B media, which includes advanced DMEM/F-12 (Thermo Fisher Scientific, cat. 12634028), 10 mM HEPES (Thermo Fisher Scientific, cat. 15630080), 1X GlutaMAX supplement (Thermo Fisher Scientific, cat. 35050061), 0.1 mg/mL primocin (InvivoGen, San Diego, CA, cat. ant-pm-2), 10% defined fetal bovine serum, heat inactivated (HyClone Laboratories Inc., Logan, UT, cat. SH30070.03HI), 50% L-WRN conditioned media (ATCC, cat. CRL-3276), 1.25 mM N-Acetyl-L-cysteine (Sigma-Aldrich, cat. A9165), 10 mM nicotinamide (Sigma-Aldrich, cat. N0636), 1X B-27 supplement (Thermo Fisher Scientific, cat. 17504044), 1X N-2 supplement (Thermo Fisher Scientific, cat. 17502048), 50 ng/mL human EGF (Thermo Fisher Scientific, cat. PHG0311), and 10 microM Y-27632 dihydrochloride (Tocris Bioscience, cat. 1254). The K12877-001-R-J1-PDC line was cultured in 6I media, which includes all 6C/Colon 1B media plus 10 ng/mL human FGF-10 (PeproTech, cat. 100-26), 1 ng/mL human FGF-2 (PeproTech, cat. 100-18B), 1 µM prostaglandin E2 (Tocris Bioscience, cat. 2296), […] hydrocortisone (Sigma-Aldrich, cat. H4001), and […] bovine insulin (Sigma-Aldrich, cat. I6634). The K86415-001-R-J1-PDC line was cultured in 6D media, which includes all 6C/Colon 1B media components minus the L-WRN conditioned media. The 485176-168-R4-J1-PDC was cultured in PANC media, which includes all 6C/Colon 1B media plus 100 ng/mL human FGF-10 (PeproTech, cat. 100-26), 500 nM SB-431542 (Selleckchem, cat. S1067), and 10 nM gastrin (Tocris Bioscience, cat. 3006). […]

[1] = second compound 0.0316 µM, first compound 0.0316 µM
[2] = second compound 0.0316 µM, first compound 0.1 µM
[3] = second compound 0.0316 µM, first compound 0.316 µM
[4] = second compound 0.0316 µM, first compound 1 µM
[5] = second compound 0.0316 µM, first compound 3.16 µM
[6] = second compound 0.0316 µM, first compound 10 µM
[7] = second compound 0.1 µM, first compound 0.0316 µM
[8] = second compound 0.1 µM, first compound 0.1 µM
[9] = second compound 0.1 µM, first compound 0.316 µM
[10] = second compound 0.1 µM, first compound 1 µM
[11] = second compound 0.1 µM, first compound 3.16 µM
[12] = second compound 0.1 µM, first compound 10 µM
[13] = second compound 0.316 µM, first compound 0.0316 µM
[14] = second compound 0.316 µM, first compound 0.1 µM
[15] = second compound 0.316 µM, first compound 0.316 µM
[16] = second compound 0.316 µM, first compound 1 µM
[17] = second compound 0.316 µM, first compound 3.16 µM
[18] = second compound 0.316 µM, first compound 10 µM
[19] = second compound 1 µM, first compound 0.0316 µM
[20] = second compound 1 µM, first compound 0.1 µM
[21] = second compound 1 µM, first compound 0.316 µM
[22] = second compound 1 µM, first compound 1 µM
[23] = second compound 1 µM, first compound 3.16 µM
[24] = second compound 1 µM, first compound 10 µM
[25] = second compound 3.16 µM, first compound 0.0316 µM
[26] = second compound 3.16 µM, first compound 0.1 µM
[27] = second compound 3.16 µM, first compound 0.316 µM
[28] = second compound 3.16 µM, first compound 1 µM
[29] = second compound 3.16 µM, first compound 3.16 µM
[30] = second compound 3.16 µM, first compound 10 µM
[31] = second compound 10 µM, first compound 0.0316 µM
[32] = second compound 10 µM, first compound 0.1 µM
[33] = second compound 10 µM, first compound 0.316 µM
[34] = second compound 10 µM, first compound 1 µM
[35] = second compound 10 µM, first compound 3.16 µM
[36] = second compound 10 µM, first compound 10 µM
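Note: spheroids exposed to compound for 7 days before readout.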
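Throughout, for viability, T/C: 100% = DMSO vehicle control wells.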

SMILES: CC1(O)CCCC1n1c(=O)c(C(F)F)cc2cnc(NC3CCN(S(C)(=O)=O)CC3)nc21 (stereo unspecified) + C#Cc1c(F)ccc2cc(O)cc(-c3ncc4c(N5CC6CCC(C5)N6)nc(OCC56CCCN5CC(F)C6)nc4c3F)c12
- IC50 (second compound 0.0316 µM): > 10 µM
- IC50 (second compound 0.1 µM): 8.85 µM
- IC50 (second compound 0.316 µM): 6.91 µM
- IC50 (second compound 1 µM): 4.97 µM
- IC50 (second compound 3.16 µM): 3.87 µM
- IC50 (second compound 10 µM): 4.08 µM
- viability, T/C [1]: 90.6%
- viability, T/C [2]: 113%
- viability, T/C [3]: 94.6%
- viability, T/C [4]: 81.5%
- viability, T/C [5]: 108%
- viability, T/C [6]: 51.5%
- viability, T/C [7]: 80.4%
- viability, T/C [8]: 83.9%
- viability, T/C [9]: 78.7%
- viability, T/C [10]: 88%
- viability, T/C [11]: 97.6%
- viability, T/C [12]: 45.7%
- viability, T/C [13]: 69.3%
- viability, T/C [14]: 75.5%
- viability, T/C [15]: 60.7%
- viability, T/C [16]: 69.8%
- viability, T/C [17]: 94.6%
- viability, T/C [18]: 38.9%
- viability, T/C [19]: 66.3%
- viability, T/C [20]: 63.2%
- viability, T/C [21]: 65.4%
- viability, T/C [22]: 56.6%
- viability, T/C [23]: 70.5%
- viability, T/C [24]: 27.5%
- viability, T/C [25]: 51%
- viability, T/C [26]: 54.6%
- viability, T/C [27]: 48%
- viability, T/C [28]: 49.1%
- viability, T/C [29]: 69%
- viability, T/C [30]: 29.7%
- viability, T/C [31]: 52.3%
- viability, T/C [32]: 57.2%
- viability, T/C [33]: 61%
- viability, T/C [34]: 56%
- viability, T/C [35]: 66.8%
- viability, T/C [36]: 19.5%

SMILES: CCN1CCN(Cc2ccc(Nc3ncc(F)c(-c4cc(F)c5nc(C)n(C(C)C)c5c4)n3)nc2)CC1 + C#Cc1c(F)ccc2cc(O)cc(-c3ncc4c(N5CC6CCC(C5)N6)nc(OCC56CCCN5CC(F)C6)nc4c3F)c12
- IC50 (second compound 0.0316 µM): > 1 µM
- IC50 (second compound 0.1 µM): > 1 µM
- IC50 (second compound 0.316 µM): > 1 µM
- IC50 (second compound 1 µM): 0.00316 µM
- IC50 (second compound 3.16 µM): < 0.00316 µM
- IC50 (second compound 10 µM): < 0.00316 µM
- viability, T/C (second compound 0.0316 µM, first compound 0.00316 µM): 110%
- viability, T/C (second compound 0.0316 µM, first compound 0.01 µM): 108%
- viability, T/C [1]: 85%
- viability, T/C [2]: 61.7%
- viability, T/C [3]: 84.9%
- viability, T/C [4]: 99%
- viability, T/C (second compound 0.1 µM, first compound 0.00316 µM): 95%
- viability, T/C (second compound 0.1 µM, first compound 0.01 µM): 81.1%
- viability, T/C [7]: 77.5%
- viability, T/C [8]: 56.5%
- viability, T/C [9]: 76%
- viability, T/C [10]: 85.2%
- viability, T/C (second compound 0.316 µM, first compound 0.00316 µM): 79.9%
- viability, T/C (second compound 0.316 µM, first compound 0.01 µM): 72%
- viability, T/C [13]: 46.7%
- viability, T/C [14]: 51.9%
- viability, T/C [15]: 72%
- viability, T/C [16]: 87.3%
- viability, T/C (second compound 1 µM, first compound 0.00316 µM): 64.5%
- viability, T/C (second compound 1 µM, first compound 0.01 µM): 62.1%
- viability, T/C [19]: 50.5%
- viability, T/C [20]: 43.5%
- viability, T/C [21]: 63.3%
- viability, T/C [22]: 77.1%
- viability, T/C (second compound 3.16 µM, first compound 0.00316 µM): 56.6%
- viability, T/C (second compound 3.16 µM, first compound 0.01 µM): 47.2%
- viability, T/C [25]: 31.6%
- viability, T/C [26]: 37.3%
- viability, T/C [27]: 58.5%
- viability, T/C [28]: 72.4%
- viability, T/C (second compound 10 µM, first compound 0.00316 µM): 54.3%
- viability, T/C (second compound 10 µM, first compound 0.01 µM): 48.2%
- viability, T/C [31]: 40.1%
- viability, T/C [32]: 37.6%
- viability, T/C [33]: 51.7%
- viability, T/C [34]: 63.1%

SMILES: C[C@@H](NC(=O)c1ncnc(N)c1Cl)c1ncc(C(=O)Nc2cc(C(F)(F)F)c(Cl)cn2)s1 + C#Cc1c(F)ccc2cc(O)cc(-c3ncc4c(N5CC6CCC(C5)N6)nc(OCC56CCCN5CC(F)C6)nc4c3F)c12
- IC50 (second compound 0.0316 µM): > 10 µM
- IC50 (second compound 0.1 µM): > 10 µM
- IC50 (second compound 0.316 µM): > 10 µM
- IC50 (second compound 1 µM): > 10 µM
- IC50 (second compound 3.16 µM): > 10 µM
- IC50 (second compound 10 µM): > 10 µM
- viability, T/C [1]: 93.3%
- viability, T/C [2]: 136%
- viability, T/C [3]: 93.4%
- viability, T/C [4]: 85.8%
- viability, T/C [5]: 97.9%
- viability, T/C [6]: 95.3%
- viability, T/C [7]: 91.3%
- viability, T/C [8]: 102%
- viability, T/C [9]: 90.9%
- viability, T/C [10]: 88.4%
- viability, T/C [11]: 69.9%
- viability, T/C [12]: 88.8%
- viability, T/C [13]: 75.9%
- viability, T/C [14]: 84.1%
- viability, T/C [15]: 60.8%
- viability, T/C [16]: 75.4%
- viability, T/C [17]: 68.1%
- viability, T/C [18]: 78.4%
- viability, T/C [19]: 67.2%
- viability, T/C [20]: 74.5%
- viability, T/C [21]: 66.6%
- viability, T/C [22]: 62.1%
- viability, T/C [23]: 64.2%
- viability, T/C [24]: 71.4%
- viability, T/C [25]: 63.4%
- viability, T/C [26]: 66.7%
- viability, T/C [27]: 63.7%
- viability, T/C [28]: 53.9%
- viability, T/C [29]: 62.2%
- viability, T/C [30]: 66.2%
- viability, T/C [31]: 63.3%
- viability, T/C [32]: 64%
- viability, T/C [33]: 46.3%
- viability, T/C [34]: 55%
- viability, T/C [35]: 60.5%
- viability, T/C [36]: 63.8%
